pIC50: −log10 of the molar value. Where two headings read alike, the source gives them in different places.
Legend:
[1] = Dog pharmacokinetics; type: in vivo, Beagle dog; details: for Vd: read-out: Vdss
Protocol: from Vital River (Beijing, China) and were typically 7-9 weeks of age at the time of dosing.
During the pharmacokinetic studies all animals were housed individually. Access to food and water was provided ad libitum (i.e., subjects were dosed in the fed state). In the instances where oral (po) dose was administered in the fed state, with ad libitum access to food and water. Compounds were administered intravenously (iv) via the tail vein (n = 2) dosed as a solution (1 mg/kg, 3 ml/kg) or via oral gavage as a solution (10 mg/kg, 10 ml/kg). Dosing solutions were prepared immediately before dosing. The composition of each dosing vehicle […]
Serial blood samples were collected via the jugular vein cannula at predetermined timepoints after dosing. Animals were monitored for pain or distress throughout the study, with at least daily monitoring during normal husbandry prior to study start. At the completion of the study, animals were euthanized by overdose of inhaled carbon dioxide. Blood samples were collected into tubes containing K2EDTA and stored on ice until centrifugation to obtain plasma, which was stored frozen at - 20 °C or lower.
Dog pharmacokinetic studies were done at Pfizer (Groton, CT). All procedures performed on beagle dogs were in accordance with regulations and established guidelines and were reviewed and approved by an Institutional Animal Care and Use Committee through an ethical review process. Male Beagle dogs were purchased from Marshall Bioresources (North Rose, NY); subjects 3 years of age were used in pharmacokinetics studies. For each study (n=2), compounds were dosed iv by cephalic vein as a solution (0.5 mg/kg, 1 mL/kg) or via oral gavage as a suspension (3 mg/kg, 5 mL/kg). In the instances where oral (po) dose was administered in the fed state, dogs were fed a couple hours before dosing. In the instances where the IV dose was administered in the fasted state, dogs were fasted over night and fed 4 hours post dose. Subjects were monitored for pain or distress throughout the study followed by at least daily monitoring while off study. The iv dosing vehicle was optimized such that the compounds were in solution and stable for at least 24 h. Serial blood samples were collected via the jugular vein at predefined time points post-dose. Blood samples were collected into K3EDTA treated collection tubes and were stored on wet ice prior to being centrifuged to obtain plasma, which was stored frozen at - 20 °C or lower.
Monkey pharmacokinetic studies were conducted at Pfizer (Groton, CT). All procedures performed on Cynomolgus monkeys were in accordance with regulations and established guidelines and were reviewed and approved by an Institutional Animal Care and Use Committee through an ethical review process. Male Cynomolgus monkeys were purchased from Envigo Global Services (Indianapolis, IN); subjects 5-8 years of age were used in pharmacokinetic studies. For each study (n=2), compounds were dosed iv by the cephalic vein (typically 1 mg/kg, 2 ml/kg). Subjects were monitored for pain or distress throughout the study followed by at least daily monitoring while off study. The iv dosing vehicle was optimized such that the compounds were in solution and stable for at least 24 h.
Serial blood samples were collected via the femoral vein at predefined time points post-dose. Blood samples were collected into K3EDTA treated collection tubes and were stored on wet ice prior to being centrifuged to obtain plasma, which was stored frozen at -20 °C or […]
LC-MS/MS Analysis of Plasma Samples
Plasma samples were processed using protein precipitation with 50:50 acetonitrile: methanol containing terfenadine (5 ng/ml) as an internal standard followed by quantitation against a standard curve (0.1-1000 ng/ml) prepared in blank plasma. Quantitation of analyte in plasma samples was done using LC-MS/MS. Standard and quality control samples, prepared in blank plasma were extracted in the same manner as the in-life samples. Briefly, a Waters […]

[2] = biological target: T1, Human Cathepsin B (Homo sapiens, UniProt P07858); assay: biochemical
T1 construct: assay run at Reaction Biology Corporation

[3] = biological target: T2, Human Cathepsin F (Homo sapiens, UniProt Q9UBX1); assay: biochemical
T2 construct: assay run at BPS Bioscience
T2 sequence (Q9UBX1 271-484): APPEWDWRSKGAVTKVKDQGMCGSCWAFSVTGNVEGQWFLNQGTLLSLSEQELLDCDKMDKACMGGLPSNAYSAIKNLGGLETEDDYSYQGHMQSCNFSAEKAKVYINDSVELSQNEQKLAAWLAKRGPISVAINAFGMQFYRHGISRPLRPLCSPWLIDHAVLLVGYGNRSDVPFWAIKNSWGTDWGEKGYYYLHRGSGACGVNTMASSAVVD

[4] = biological target: T3, Human Elastase (Homo sapiens, UniProt P08246); assay: biochemical
T3 construct: Reaction Biology Corporation (ran the assay as a service)

[5] = biological target: T4, Cyclooxygenase 2 (Homo sapiens, UniProt P35354); assay: CEREP enzyme inhibition; type: biochemical
T4 construct: purchased Eurofins Cerep
T4 sequence (P35354 18-604): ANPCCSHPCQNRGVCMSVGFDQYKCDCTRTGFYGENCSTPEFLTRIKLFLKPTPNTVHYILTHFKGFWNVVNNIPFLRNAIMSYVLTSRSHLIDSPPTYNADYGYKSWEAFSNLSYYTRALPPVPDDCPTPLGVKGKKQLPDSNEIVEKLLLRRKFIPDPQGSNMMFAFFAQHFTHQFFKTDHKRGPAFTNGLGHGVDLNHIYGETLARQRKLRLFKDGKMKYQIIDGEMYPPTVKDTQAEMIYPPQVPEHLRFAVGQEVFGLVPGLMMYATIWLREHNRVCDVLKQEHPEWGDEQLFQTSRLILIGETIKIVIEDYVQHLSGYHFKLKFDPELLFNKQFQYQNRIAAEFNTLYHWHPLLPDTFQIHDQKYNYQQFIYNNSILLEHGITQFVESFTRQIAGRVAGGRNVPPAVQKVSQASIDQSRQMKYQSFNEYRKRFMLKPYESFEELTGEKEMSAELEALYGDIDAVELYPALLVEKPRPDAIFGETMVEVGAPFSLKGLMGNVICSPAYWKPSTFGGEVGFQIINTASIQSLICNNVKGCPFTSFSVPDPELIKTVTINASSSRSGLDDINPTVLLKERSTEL

[6] = test system: Monoamine Oxidase; assay: CEREP enzyme inhibition; type: biochemical; details: 30 µM
[7] = biological target: T5, PDE3B (Homo sapiens, UniProt Q13370); assay: CEREP enzyme inhibition; type: biochemical
T5 construct: purchased Eurofins Cerep
T5 sequence (Q13370 whole entry): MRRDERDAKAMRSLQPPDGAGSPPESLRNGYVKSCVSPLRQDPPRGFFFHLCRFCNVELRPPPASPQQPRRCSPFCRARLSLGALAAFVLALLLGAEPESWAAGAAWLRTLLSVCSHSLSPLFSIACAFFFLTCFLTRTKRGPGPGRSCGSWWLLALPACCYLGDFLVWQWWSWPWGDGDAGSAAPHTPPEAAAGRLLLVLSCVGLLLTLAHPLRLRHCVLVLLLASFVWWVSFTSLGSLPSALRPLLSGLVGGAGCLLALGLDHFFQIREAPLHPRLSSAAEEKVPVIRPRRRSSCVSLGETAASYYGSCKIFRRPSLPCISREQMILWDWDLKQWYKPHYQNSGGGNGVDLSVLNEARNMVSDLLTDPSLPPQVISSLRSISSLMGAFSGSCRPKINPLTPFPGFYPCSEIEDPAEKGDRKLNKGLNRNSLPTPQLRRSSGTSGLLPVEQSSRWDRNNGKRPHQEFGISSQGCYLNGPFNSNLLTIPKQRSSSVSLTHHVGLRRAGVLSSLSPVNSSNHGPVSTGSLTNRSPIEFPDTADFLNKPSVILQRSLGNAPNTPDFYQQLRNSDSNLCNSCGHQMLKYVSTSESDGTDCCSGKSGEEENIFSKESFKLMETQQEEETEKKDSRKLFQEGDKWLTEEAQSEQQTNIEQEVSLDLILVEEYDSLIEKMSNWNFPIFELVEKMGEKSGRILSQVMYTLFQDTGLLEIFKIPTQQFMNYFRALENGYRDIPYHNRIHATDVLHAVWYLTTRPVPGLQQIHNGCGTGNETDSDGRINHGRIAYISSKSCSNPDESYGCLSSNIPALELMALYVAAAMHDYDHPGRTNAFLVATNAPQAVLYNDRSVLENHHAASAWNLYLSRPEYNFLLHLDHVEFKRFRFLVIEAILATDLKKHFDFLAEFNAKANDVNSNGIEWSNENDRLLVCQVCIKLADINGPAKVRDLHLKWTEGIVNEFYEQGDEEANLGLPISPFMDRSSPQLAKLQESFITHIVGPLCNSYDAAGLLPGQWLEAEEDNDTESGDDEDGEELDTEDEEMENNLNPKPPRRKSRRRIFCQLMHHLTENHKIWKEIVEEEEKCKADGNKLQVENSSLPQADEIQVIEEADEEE

[8] = biological target: T6, Aurora A Kinase (Homo sapiens, UniProt O14965); assay: CEREP kinase inhibition; type: biochemical
T6 construct: purchased Eurofins Cerep
T6 sequence (O14965 whole entry): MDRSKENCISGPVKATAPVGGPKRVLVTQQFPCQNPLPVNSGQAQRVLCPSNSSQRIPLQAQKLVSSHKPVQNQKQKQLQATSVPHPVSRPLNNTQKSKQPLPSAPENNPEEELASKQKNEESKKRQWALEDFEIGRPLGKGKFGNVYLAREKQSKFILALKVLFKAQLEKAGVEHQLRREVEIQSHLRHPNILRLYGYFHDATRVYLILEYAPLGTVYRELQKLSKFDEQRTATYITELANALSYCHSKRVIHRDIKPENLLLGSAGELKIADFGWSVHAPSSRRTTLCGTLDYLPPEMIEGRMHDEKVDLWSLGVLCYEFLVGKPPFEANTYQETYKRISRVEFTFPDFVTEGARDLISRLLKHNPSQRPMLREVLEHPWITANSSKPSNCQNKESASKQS

[9] = biological target: T7, Lck Kinase (Homo sapiens, UniProt P06239); assay: CEREP kinase inhibition; type: biochemical
T7 construct: purchased Eurofins Cerep

[10] = biological target: T8, VEGFR2 Kinase (Homo sapiens, UniProt P35968); assay: CEREP kinase inhibition; type: biochemical
T8 construct: purchased Eurofins Cerep
T8 sequence (P35968 20-1356): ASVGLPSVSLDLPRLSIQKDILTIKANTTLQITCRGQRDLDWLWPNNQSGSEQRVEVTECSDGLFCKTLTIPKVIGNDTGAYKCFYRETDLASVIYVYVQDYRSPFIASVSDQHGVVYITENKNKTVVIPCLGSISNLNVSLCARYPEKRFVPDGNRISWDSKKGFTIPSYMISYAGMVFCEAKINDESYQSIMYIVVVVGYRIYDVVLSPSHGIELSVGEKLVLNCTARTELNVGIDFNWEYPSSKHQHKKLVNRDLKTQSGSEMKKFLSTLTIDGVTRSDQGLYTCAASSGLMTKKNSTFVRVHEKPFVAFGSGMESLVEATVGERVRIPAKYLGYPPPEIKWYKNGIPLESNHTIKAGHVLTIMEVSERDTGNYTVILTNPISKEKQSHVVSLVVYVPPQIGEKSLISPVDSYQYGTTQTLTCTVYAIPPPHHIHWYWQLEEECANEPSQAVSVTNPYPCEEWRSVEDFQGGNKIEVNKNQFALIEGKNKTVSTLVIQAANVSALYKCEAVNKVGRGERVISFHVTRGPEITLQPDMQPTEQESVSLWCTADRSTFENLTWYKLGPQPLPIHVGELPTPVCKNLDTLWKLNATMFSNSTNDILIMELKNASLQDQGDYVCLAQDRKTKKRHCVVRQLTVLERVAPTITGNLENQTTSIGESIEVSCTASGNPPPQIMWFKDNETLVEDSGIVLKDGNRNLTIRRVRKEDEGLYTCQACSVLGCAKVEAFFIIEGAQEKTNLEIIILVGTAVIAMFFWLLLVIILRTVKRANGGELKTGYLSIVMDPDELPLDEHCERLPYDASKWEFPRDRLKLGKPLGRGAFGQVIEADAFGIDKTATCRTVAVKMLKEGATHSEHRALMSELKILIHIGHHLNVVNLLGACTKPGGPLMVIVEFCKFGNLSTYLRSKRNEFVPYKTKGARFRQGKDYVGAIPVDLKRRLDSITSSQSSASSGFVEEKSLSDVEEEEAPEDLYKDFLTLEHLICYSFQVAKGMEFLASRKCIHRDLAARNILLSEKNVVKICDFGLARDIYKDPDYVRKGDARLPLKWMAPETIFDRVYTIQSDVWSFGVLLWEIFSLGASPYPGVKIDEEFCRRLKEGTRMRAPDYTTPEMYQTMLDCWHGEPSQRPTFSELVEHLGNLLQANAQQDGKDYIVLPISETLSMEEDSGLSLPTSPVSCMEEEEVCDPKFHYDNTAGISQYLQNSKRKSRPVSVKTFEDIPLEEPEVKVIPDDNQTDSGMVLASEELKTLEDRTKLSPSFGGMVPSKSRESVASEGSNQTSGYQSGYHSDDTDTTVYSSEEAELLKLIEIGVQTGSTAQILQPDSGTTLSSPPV

[11] = biological target: T9, Androgen Receptor (Binding) (Homo sapiens, UniProt P10275); assay: CEREP NHR-binding
T9 construct: purchased Eurofins Cerep
T9 sequence (P10275 whole entry): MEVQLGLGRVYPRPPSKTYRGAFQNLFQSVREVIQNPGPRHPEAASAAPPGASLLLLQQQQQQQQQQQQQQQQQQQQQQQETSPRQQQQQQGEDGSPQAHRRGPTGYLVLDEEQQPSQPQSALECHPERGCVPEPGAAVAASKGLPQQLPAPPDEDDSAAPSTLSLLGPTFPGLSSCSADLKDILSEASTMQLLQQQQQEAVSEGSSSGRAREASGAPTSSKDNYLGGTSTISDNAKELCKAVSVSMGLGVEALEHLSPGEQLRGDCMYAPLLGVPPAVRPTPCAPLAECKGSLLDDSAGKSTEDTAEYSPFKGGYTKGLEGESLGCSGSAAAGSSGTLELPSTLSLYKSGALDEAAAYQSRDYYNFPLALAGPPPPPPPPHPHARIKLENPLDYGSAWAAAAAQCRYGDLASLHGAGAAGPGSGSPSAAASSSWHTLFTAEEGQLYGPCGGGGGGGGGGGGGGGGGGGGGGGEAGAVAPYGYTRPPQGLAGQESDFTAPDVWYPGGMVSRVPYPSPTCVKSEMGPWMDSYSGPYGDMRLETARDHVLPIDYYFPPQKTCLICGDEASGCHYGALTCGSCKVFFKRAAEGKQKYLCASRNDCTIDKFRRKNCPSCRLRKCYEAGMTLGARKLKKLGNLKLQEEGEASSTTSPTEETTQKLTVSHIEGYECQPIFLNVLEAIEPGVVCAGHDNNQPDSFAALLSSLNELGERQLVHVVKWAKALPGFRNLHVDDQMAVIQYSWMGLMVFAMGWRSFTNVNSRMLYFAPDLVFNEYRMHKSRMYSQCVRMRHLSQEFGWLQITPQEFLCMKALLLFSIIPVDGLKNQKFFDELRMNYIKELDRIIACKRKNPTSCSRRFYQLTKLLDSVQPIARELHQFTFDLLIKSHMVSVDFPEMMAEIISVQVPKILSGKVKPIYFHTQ

[12] = test system: GABAa (benzodiazepine Site); assay: CEREP ion channel-binding; details: 30 µM
[13] = test system: NMDA Receptor; assay: CEREP ion channel-binding; details: 30 µM
[14] = test system: NMDA Receptor (PCP site); assay: CEREP ion channel-binding; details: 30 µM
[15] = test system: Nicotinic Ach Receptor (muscle); assay: CEREP ion channel-binding; details: 30 µM
[16] = test system: Sodium (Site 2); assay: CEREP ion channel-binding; details: 30 µM
[17] = test system: Vero E6 cells; details: read-out: Mean CC50; n=3
[18] = in vitro; details: male, Wistar-Hannover, rat, plasma
[19] = in vitro; details: dog, plasma
[20] = in vitro; details: African green monkey, Mean CC50, n=3
[21] = biological target: CYP1A2 (Homo sapiens, UniProt P05177); assay: biochemical
[22] = biological target: CYP2C8 (Homo sapiens, UniProt P10632); assay: biochemical
[23] = biological target: CYP2C9 (Homo sapiens, UniProt P11712); assay: biochemical
CYP2C9, sequence (P11712 whole entry): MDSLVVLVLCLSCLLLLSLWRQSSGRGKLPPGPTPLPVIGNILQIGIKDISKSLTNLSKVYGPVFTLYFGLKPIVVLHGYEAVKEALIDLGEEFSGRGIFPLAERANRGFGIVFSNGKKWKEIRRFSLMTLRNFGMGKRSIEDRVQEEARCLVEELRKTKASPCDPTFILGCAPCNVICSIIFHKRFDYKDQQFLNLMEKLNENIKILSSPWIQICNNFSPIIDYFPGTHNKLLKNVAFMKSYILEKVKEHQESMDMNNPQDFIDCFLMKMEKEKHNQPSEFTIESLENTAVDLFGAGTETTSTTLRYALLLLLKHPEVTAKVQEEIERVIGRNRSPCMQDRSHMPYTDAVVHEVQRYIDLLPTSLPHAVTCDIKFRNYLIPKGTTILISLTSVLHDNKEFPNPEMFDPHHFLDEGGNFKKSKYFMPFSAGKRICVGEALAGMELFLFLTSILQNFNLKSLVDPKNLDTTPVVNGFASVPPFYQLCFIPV

[24] = plasma, Male Beagle Dog, 0.5 mg/kg iv, solution, mean n=2
[25] = plasma, Male Beagle Dog, 3.0 mg/kg po, suspension, mean n=2

Cc1ccc(N2CCN(C)CC2)cc1C(=O)NC1(c2cc(-c3cnn(C)c3)nc3ccccc23)CC1 [Compound 4]
Oral F ([1]; Male Beagle Dog, 3.0 mg/kg po, suspension, mean n=2): 41.0% | Vd ([1]; male, Beagle, plasma, 0.5 mg/kg, dog (d), intravenous): 1.59 L/kg | bioavailability ([1]; male, Beagle, plasma, po, 3 mg/kg, dog (d), read-out: Oral F (%)): 41% | AUC(0-inf) [1, 24]: 640 ng·h/mL | half-life [1, 24]: 2.06 h | clearance ([1]; plasma, Male Beagle Dog, 0.5 mg/kg iv, solution, mean n=2, read-out: CLp): 13.4 mL/min/kg | Vd [1, 24]: 1.59 L/kg | AUC(0-inf) [1, 25]: 1580 ng·h/mL | Cmax [1, 25]: 354 ng/mL | Tmax [1, 25]: 1 h | half-life [1, 25]: 2.52 h | pIC50 [2]: < 4.00 | pIC50 [3]: < 4.00 | pIC50 [4]: < 4.00 | inhibition at 30 µM [5]: 36% | % inhibition [6]: 16% | inhibition at 30 µM [7]: 4% | inhibition at 30 µM [8]: -1% | inhibition at 30 µM [9]: -1% | inhibition at 30 µM [10]: 11% | inhibition at 30 µM [11]: -10% | % inhibition [12]: 7% | % inhibition [13]: -2% | % inhibition [14]: 14% | % inhibition [15]: 2% | % inhibition [16]: -15% | CC50 [17]: 78.7 µM | fraction unbound [18]: 0.241 | fraction unbound [19]: 0.176 | CC50 [20]: 69.3 µM | pIC50 [21]: 4.14 | pIC50 [22]: 4.12 | pIC50 [23]: < 4.52
